Data from patent US11053218B2, “3-(1-oxoisoindolin-2-yl)piperidine-2,6-dione derivatives and uses thereof” (Novartis AG, priority 2017, dated 2021).
Where two headings read alike, the source gives them in different places.

Legend:
IKZF2 = IKZF2 (Homo sapiens, UniProt Q96SW2+Q9UKS7); test: Prolabel quantification of IKZF2 protein levels in 293GT cells; assay type: cell-based; conditions: 293GT cells; for inhibition at 10 µM: read-out: IKZF2 % protein reduction at 10 μM, 24 h; for DC50: Prolabel assay, read-out: IKZF2 EC50
Procedure: (§1) The Prolabel system from DiscoverX was used to develop high-throughput and quantitative assays to measure changes in IKZF1, IKZF2 and GSPT1 protein levels in response to compounds. The prolabel tag was derived from the alpha fragment of beta galactosidase and has the following protein sequence: mssnslavvlqrrdwenpgvtqlnrlaahppfaswrnseeartdrpsqqlrslnge. The complementary fragment of beta-galactosidase (from DiscoverX), is added to the prolabel tag to form an active beta galactosidase enzyme whose activity can be precisely measured. In this way, the levels of a fusion protein with the prolabel tag can be quantified in cell lysates.
(§2) Lentiviral vectors, based on the Invitrogen pLenti6.2/V5 DEST backbone, were constructed that placed the prolabel tag upstream of IKZF1, IKZF2 or GSPT1 and expressed the fusion protein from a CMV promoter.
(§3) To ensure moderate and consistent expression of the prolabel fusion proteins across all cells in the population, stable cell lines were constructed from cells expressing a single copy of the construct. Lentivirus packaged with the constructs was made using the Virapower kit from Invitrogen.
(§4) The levels of prolabel tagged fusion proteins in compound treated cell lines were measured as follows:
(§5) Day 1, Cells were diluted to 1.0×10^6 cells/ml in normal growth medium. 17.5 μL of cells were plated in each well of a solid white 384 well plate. Plates were incubated overnight in a 37° C. tissue culture incubator.
(§6) Day 2, Serial dilutions of compounds were made in 384 well plates from 10 mM stocks. 15 μL of DMSO was added to each well of a 384 well plate. In the first column 15 μL of stock compound was added. The solution was mixed and 15 μL was transferred to the next column. This was repeated until 20 two-fold dilutions were prepared. 2.5 μL of diluted compounds were transferred into 60 μL of cell culture medium in another 384 well plate, and mixed well. 2.5 μL of this mixture was added to the plated cells. The final DMSO concentration was 0.5% and the highest concentration of compound was 50 μM. Plates were incubated overnight (e.g., about 14 h, 18 h, or 24 h) in a 37° C. tissue culture incubator.
(§7) Day 3, Plates were removed from the incubator and allowed to equilibrate at rt for 30 minutes. Prolabel substrate (DiscoverX PathHunter Prolabel Detection Kit, User manual: 93-0180) was added as described by the manufacturers protocols. Plates were incubated at rt for three hours and luminescence was read using an Envision reader (Perkin Elmer) Data was analyzed and visualized using the Spotfire software package.

IKZF1 = IKZF1 (Homo sapiens, UniProt Q13422+Q96SW2); test: Prolabel quantification of IKZF1 protein levels in 293GT cells; assay type: cell-based; conditions: Prolabel assay, read-out: IKZF1 EC50
Procedure: as §1, §2, §3, §4, §5, §6, §7

Sequence of IKZF2 (Q9UKS7 whole entry, the tested form may be a part): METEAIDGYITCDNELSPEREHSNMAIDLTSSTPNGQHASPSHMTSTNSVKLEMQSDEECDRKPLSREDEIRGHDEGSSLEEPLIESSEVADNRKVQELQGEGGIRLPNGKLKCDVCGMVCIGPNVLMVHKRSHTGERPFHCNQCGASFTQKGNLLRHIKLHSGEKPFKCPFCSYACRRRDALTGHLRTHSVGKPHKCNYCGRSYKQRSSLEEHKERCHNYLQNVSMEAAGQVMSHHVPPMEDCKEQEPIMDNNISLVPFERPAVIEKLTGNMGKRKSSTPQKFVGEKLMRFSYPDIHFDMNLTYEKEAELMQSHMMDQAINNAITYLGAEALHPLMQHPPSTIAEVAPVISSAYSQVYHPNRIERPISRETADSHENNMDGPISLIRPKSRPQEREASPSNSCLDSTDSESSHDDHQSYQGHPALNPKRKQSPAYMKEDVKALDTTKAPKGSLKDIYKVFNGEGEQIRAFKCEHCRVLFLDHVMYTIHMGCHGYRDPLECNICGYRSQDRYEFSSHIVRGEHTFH
Sequence of IKZF2 (Q96SW2 whole entry, the tested form may be a part): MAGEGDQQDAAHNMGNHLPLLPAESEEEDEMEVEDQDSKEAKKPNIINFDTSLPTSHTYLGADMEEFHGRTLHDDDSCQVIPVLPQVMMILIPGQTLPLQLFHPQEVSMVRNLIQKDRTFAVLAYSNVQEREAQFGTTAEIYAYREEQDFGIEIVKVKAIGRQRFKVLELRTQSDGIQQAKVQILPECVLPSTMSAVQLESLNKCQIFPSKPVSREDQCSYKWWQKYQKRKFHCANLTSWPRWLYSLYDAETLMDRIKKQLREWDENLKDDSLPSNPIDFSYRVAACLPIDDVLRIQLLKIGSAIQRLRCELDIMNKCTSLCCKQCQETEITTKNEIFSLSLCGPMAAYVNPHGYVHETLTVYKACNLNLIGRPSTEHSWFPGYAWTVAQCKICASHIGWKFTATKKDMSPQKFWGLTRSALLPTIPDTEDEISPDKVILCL
Sequence of IKZF2 (Q16531 whole entry partner, the tested form may be a part): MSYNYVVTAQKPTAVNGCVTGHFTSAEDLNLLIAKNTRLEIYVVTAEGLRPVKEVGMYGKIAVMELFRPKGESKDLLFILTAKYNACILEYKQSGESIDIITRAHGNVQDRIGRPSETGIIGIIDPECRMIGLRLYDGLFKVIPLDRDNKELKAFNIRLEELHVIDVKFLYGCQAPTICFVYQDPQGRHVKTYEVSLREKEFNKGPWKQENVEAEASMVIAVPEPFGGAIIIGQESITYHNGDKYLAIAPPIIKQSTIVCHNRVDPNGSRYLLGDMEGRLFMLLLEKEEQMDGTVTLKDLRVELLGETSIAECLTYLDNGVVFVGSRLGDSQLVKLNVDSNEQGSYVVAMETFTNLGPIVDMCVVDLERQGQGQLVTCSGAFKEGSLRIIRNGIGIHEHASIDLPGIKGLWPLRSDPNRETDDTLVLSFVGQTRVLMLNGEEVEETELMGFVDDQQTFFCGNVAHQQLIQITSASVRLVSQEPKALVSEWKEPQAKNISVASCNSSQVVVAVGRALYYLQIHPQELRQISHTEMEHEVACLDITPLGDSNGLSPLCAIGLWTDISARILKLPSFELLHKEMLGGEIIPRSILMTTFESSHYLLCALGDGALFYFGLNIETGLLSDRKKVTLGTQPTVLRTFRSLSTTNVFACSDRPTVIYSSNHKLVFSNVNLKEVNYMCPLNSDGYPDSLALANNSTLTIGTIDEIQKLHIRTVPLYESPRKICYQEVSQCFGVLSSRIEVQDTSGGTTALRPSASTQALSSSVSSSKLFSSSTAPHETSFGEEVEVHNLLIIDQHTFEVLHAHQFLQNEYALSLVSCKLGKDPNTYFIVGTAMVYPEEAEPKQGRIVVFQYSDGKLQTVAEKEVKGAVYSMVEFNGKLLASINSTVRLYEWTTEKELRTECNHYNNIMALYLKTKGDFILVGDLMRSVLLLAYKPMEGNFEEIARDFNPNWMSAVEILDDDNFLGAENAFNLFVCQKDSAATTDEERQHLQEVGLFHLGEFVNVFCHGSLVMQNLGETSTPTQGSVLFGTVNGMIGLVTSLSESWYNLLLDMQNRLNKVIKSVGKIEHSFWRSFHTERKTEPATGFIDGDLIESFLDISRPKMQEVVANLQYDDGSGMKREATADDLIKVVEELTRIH
Sequence of IKZF1 (Q13422 whole entry): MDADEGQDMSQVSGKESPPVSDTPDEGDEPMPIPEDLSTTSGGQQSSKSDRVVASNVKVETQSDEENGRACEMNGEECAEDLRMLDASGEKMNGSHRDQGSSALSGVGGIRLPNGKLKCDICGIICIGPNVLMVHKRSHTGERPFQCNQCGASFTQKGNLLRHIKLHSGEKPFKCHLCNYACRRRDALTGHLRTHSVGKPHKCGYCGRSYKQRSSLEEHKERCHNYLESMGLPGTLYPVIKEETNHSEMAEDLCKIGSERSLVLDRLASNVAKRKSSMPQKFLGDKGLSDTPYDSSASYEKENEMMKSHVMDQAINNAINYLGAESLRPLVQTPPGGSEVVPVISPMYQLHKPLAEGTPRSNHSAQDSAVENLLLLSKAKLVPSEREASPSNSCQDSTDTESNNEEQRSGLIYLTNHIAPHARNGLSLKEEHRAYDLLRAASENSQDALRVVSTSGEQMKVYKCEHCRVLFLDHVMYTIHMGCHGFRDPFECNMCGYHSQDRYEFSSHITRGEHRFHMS
Sequence of IKZF1 (Q96SW2 whole entry): as the sequence (Q96SW2 whole entry, the tested form may be a part) above
Sequence of IKZF1 (Q16531 whole entry partner): as the sequence (Q16531 whole entry partner, the tested form may be a part) above

Compound | inhibition at 10 µM (IKZF2; 24 h, 10 μM, 24 h) [%] | DC50 (IKZF2) [µM] | DC50 (IKZF1) [µM] | IKZF2 % protein reduction at 10 μM, 24 h (IKZF2; 10 μM, 24 h) [%] | inhibition at 10 µM (IKZF2; 10 μM, 24 h) [%]
O=C1CCC(N2Cc3cc(C4CCCN(Cc5ccccc5)CC4)ccc3C2=O)C(=O)N1 (single isomer, unassigned) [Compound I-190, 3-(5-(1-benzylazepan-4-yl)-1-oxoisoindolin-2-yl)piperidine-2,6-dione] | 30 | 0.17 | > 30 |  | 
O=C1CCC(N2Cc3cc(C4CCN([C@@H](CO)c5ccccc5)CC4)ccc3C2=O)C(=O)N1 (single isomer, unassigned) [Compound I-202] | 40 | 0.59 | > 30 |  | 
CC(c1ccccc1)N1CCC(c2ccc3c(c2)CN(C2CCC(=O)NC2=O)C3=O)CC1 (single isomer, unassigned) [Compound I-230] | 65 | 0.009 | > 30 |  | 
C[C@H](c1ccccc1)N1CCC(c2ccc3c(c2)CN(C2CCC(=O)NC2=O)C3=O)CC1 (single isomer, unassigned) [Compound I-247] | 70 | 0.017 | > 30 |  | 
O=C1CCC(N2Cc3cc(C4CCN(C(CO)c5ccccc5)CC4)ccc3C2=O)C(=O)N1 (single isomer, unassigned) [Compound I-249] | 40 | 0.85 | > 30 |  | 
O=C1CCC(N2Cc3cc(C4CCCN(Cc5ccccc5)CC4)ccc3C2=O)C(=O)N1 (single isomer, unassigned) [Compound I-273, 3-(5-(1-benzylazepan-4-yl)-1-oxoisoindolin-2-yl)piperidine-2,6-dione] |  | 0.21 | > 30 | 20 | 
CCN1CCC(c2ccc3c(c2)CN(C2CCC(=O)NC2=O)C3=O)CC1 (stereo not drawn) [Compound I-1, 3-(5-(1-ethylpiperidin-4-yl)-1-oxoisoindolin-2-yl)piperidine-2,6-dione] |  | 0.067 | > 30 |  | 60
O=C1CCC(N2Cc3cc(C4CCN(CC5CC5)CC4)ccc3C2=O)C(=O)N1 (stereo not drawn) [Compound I-3, 3-(5-(1-(cyclopropylmethyl)piperidin-4-yl)-1-oxoisoindolin-2-yl)piperidine-2,6-dione] | 60 | 0.023 | > 30 |  | 
CC(C)CN1CCC(c2ccc3c(c2)CN(C2CCC(=O)NC2=O)C3=O)CC1 (stereo not drawn) [Compound I-4, 3-(5-(1-isobutylpiperidin-4-yl)-1-oxoisoindolin-2-yl) piperidine-2,6-dione] | 60 | 0.031 | > 30 |  | 
O=C1CCC(N2Cc3cc(C4CCN(CC5CCC5)CC4)ccc3C2=O)C(=O)N1 (stereo not drawn) [Compound I-5, 3-(5-(1-(cyclobutylmethyl)piperidin-4-yl)-1-oxoisoindolin-2-yl)piperidine-2,6-dione] | 60 | 0.027 | > 30 |  | 
O=C1CCC(N2Cc3cc(C4CCN(Cc5cnc(Cl)s5)CC4)ccc3C2=O)C(=O)N1 (stereo not drawn) [Compound I-10, 3-(5-(1-((2-chlorothiazol-5-yl)methyl)piperidin-4-yl)-1-oxoisoindolin-2-yl)piperidine-2,6-dione] | 60 | 0.085 | > 30 |  | 
O=C1CCC(N2Cc3cc(C4CCN(CC5CCOCC5)CC4)ccc3C2=O)C(=O)N1 (stereo not drawn) [Compound I-13, 3-(1-oxo-5-(1-((tetrahydro-2H-pyran-4-yl)methyl)piperidin-4-yl)isoindolin-2-yl)piperidine-2,6-dione] | 60 | 0.029 | > 30 |  | 
O=C1CCC(N2Cc3cc(C4CCN(CCc5ccccc5)CC4)ccc3C2=O)C(=O)N1 (stereo not drawn) [Compound I-14, 3-(1-oxo-5-(1-phenethylpiperidin-4-yl)isoindolin-2-yl)piperidine-2,6-dione] | 65 | 0.014 | > 30 |  | 
O=C1CCC(N2Cc3cc(C4CCN(Cc5cccc(Cl)c5)CC4)ccc3C2=O)C(=O)N1 (stereo not drawn) [Compound I-16, 3-(5-(1-(3-chlorobenzyl)piperidin-4-yl)-1-oxoisoindolin-2-yl)piperidine-2,6-dione] | 70 | 0.008 | > 30 |  | 
O=C1CCC(N2Cc3cc(C4CCN(Cc5ccccc5Cl)CC4)ccc3C2=O)C(=O)N1 (stereo not drawn) [Compound I-18, 3-(5-(1-(2-chlorobenzyl)piperidin-4-yl)-1-oxoisoindolin-2-yl)piperidine-2,6-dione] | 65 | 0.019 | > 30 |  | 
O=C1CCC(N2Cc3cc(C4CCN(Cc5c(F)cccc5F)CC4)ccc3C2=O)C(=O)N1 (stereo not drawn) [Compound I-24, 3-(5-(1-(2,6-difluorobenzyl)piperidin-4-yl)-1-oxoisoindolin-2-yl)piperidine-2,6-dione] | 60 | 0.039 | > 30 |  | 
O=C1CCC(N2Cc3cc(C4CCN(Cc5cc(F)cc(F)c5)CC4)ccc3C2=O)C(=O)N1 (stereo not drawn) [Compound I-26, 3-(5-(1-(3,5-difluorobenzyl)piperidin-4-yl)-1-oxoisoindolin-2-yl)piperidine-2,6-dione] | 65 | 0.007 | > 30 |  | 
O=C1CCC(N2Cc3cc(C4CCN(Cc5cc(F)ccc5F)CC4)ccc3C2=O)C(=O)N1 (stereo not drawn) [Compound I-29, 3-(5-(1-(2,5-difluorobenzyl)piperidin-4-yl)-1-oxoisoindolin-2-yl)piperidine-2,6-dione] | 70 | 0.036 | > 30 |  | 
O=C1CCC(N2Cc3cc(C4CCN(Cc5ccc(CO)cc5)CC4)ccc3C2=O)C(=O)N1 (stereo not drawn) [Compound I-32, 3-(5-(1-(4-(hydroxymethyl)benzyl)piperidin-4-yl)-1-oxoisoindolin-2-yl)piperidine-2,6-dione] | 80 | 0.046 | > 30 |  | 
N#Cc1ccccc1CN1CCC(c2ccc3c(c2)CN(C2CCC(=O)NC2=O)C3=O)CC1 (stereo not drawn) [Compound I-38, 2-((4-(2-(2,6-dioxopiperidin-3-yl)-1-oxoisoindolin-5-yl)piperidin-1-yl)methyl)benzonitrile] | 55 | 0.041 | > 30 |  | 
Cc1ccc(CN2CCC(c3ccc4c(c3)CN(C3CCC(=O)NC3=O)C4=O)CC2)c(C)c1 (stereo not drawn) [Compound I-42, 3-(5-(1-(2,4-dimethylbenzyl)piperidin-4-yl)-1-oxoisoindolin-2-yl)piperidine-2,6-dione] | 60 | 0.009 | > 30 |  | 
CC(C)c1ccc(CN2CCC(c3ccc4c(c3)CN(C3CCC(=O)NC3=O)C4=O)CC2)cc1 (stereo not drawn) [Compound I-45, 3-(5-(1-(4-isopropylbenzyl)piperidin-4-yl)-1-oxoisoindolin-2-yl)piperidine-2,6-dione] | 80 | 0.008 | > 30 |  | 
O=C1CCC(N2Cc3cc(C4CCN(Cc5ccc6ccccc6c5)CC4)ccc3C2=O)C(=O)N1 (stereo not drawn) [Compound I-47, 3-(5-(1-(naphthalen-2-ylmethyl)piperidin-4-yl)-1-oxoisoindolin-2-yl)piperidine-2,6-dione] | 80 | 0.008 | > 30 |  | 
O=C1CCC(N2Cc3cc(C4CCN(Cc5cccc6ccccc56)CC4)ccc3C2=O)C(=O)N1 (stereo not drawn) [Compound I-49, 3-(5-(1-(naphthalen-1-ylmethyl)piperidin-4-yl)-1-oxoisoindolin-2-yl)piperidine-2,6-dione] | 60 | 0.004 | > 30 |  | 
